From PubChem BioAssay (NCI) come the findings set out here.

Some test systems named below: HCC-2998 colon; HL-60(TB) leukemia; M14 melanoma; NCI-H23 lung; NCI-H460 lung; OVCAR-3 ovarian; SF-539 CNS; SK-MEL-2 melanoma; SK-MEL-28 melanoma; SN12C renal; SNB-75 CNS; RPMI-8226 leukemia.
Common to all, as to experiment: NCI tumour cell line growth inhibition, 48 h

Several values for one entry are separate records, joined by “and”; a condition that tells them apart may be missing. Equal values may be shown once.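 Dose response: 5 concentrations. Exposure: 48 h. Format: 96-well plates. Endpoint: linear interpolation; highest concentration if not reached. Abbreviation: GI50, concentration required for 50% inhibition of growth. At the TGI there is no net growth.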

In the case of `CN(C)CCCNC(=O)N/N=C/c1ccc(O)cc1`, the TGI with HCC-2998 colon, in the assay on HL-60(TB) leukemia, in the assay on M14 melanoma, with NCI-H23 lung, in the assay on NCI-H460 lung and with OVCAR-3 ovarian was greater than 100 µM throughout. Further, the TGI with SF-539 CNS, in the assay on SK-MEL-2 melanoma, in the assay with SK-MEL-28 melanoma, in the assay on SN12C renal and with SNB-75 CNS was greater than 100 µM each time.
With `CCCCn1c(-c2ccccc2)cs/c1=N\N=C1C=C(C(C)(C)C)C(=O)C(C(C)(C)C)=C1`, the TGI in the assay on HCC-2998 colon, with HL-60(TB) leukemia, in the assay with M14 melanoma, with NCI-H23 lung, in the assay on NCI-H460 lung and in the assay on OVCAR-3 ovarian was greater than 100 µM throughout. The TGI with SF-539 CNS, with SK-MEL-2 melanoma and in the assay on SN12C renal was greater than 100 µM each time.
In the case of `N#C/C(=C\c1ccc(O)c(O)c1)c1c(C#N)c(N)nn1-c1ccccc1`, the TGI with HCC-2998 colon is 26.4 µM; with HL-60(TB) leukemia, 32.7 µM; in the assay on M14 melanoma, 31.9 µM; in the assay with NCI-H23 lung it was 25.3 µM; with NCI-H460 lung, 38.3 µM; in the assay on OVCAR-3 ovarian it was 6.63 µM. Moreover, the TGI in the assay with SF-539 CNS is 18.9 µM; with SK-MEL-2 melanoma it was 49.8 µM; in the assay on SK-MEL-28 melanoma it was greater than 100 µM; in the assay with SN12C renal, 39.4 µM; in the assay with SNB-75 CNS, greater than 100 µM.
Regarding `NC(Cc1ccc(O)cn1)C(=O)NC(C(=O)O)c1ccccc1` (configuration not stated), the TGI in the assay with HCC-2998 colon, in the assay on HL-60(TB) leukemia, in the assay on NCI-H23 lung, with NCI-H460 lung, with OVCAR-3 ovarian and in the assay on RPMI-8226 leukemia was greater than 100 µM each time. For the same compound, the TGI in the assay with SF-539 CNS, in the assay with SK-MEL-28 melanoma, in the assay on SN12C renal and with SNB-75 CNS was greater than 100 µM throughout.
In the case of `Cc1ccc(C2(O)c3ccccc3C(=O)N(C)C2(O)c2ccc(C)cc2)cc1` (configuration not stated), the TGI with HCC-2998 colon is greater than 100 µM; in the assay with HL-60(TB) leukemia it was 40.3 µM; with M14 melanoma, greater than 100 µM; with NCI-H23 lung it was greater than 100 µM; in the assay with NCI-H460 lung, 75.8 µM; in the assay on OVCAR-3 ovarian it was greater than 100 µM. Moreover, the TGI with RPMI-8226 leukemia, in the assay on SF-539 CNS, in the assay on SK-MEL-2 melanoma, in the assay on SK-MEL-28 melanoma and in the assay on SN12C renal was greater than 100 µM each time.
Consider `CCN(CC)CCNc1c2ccccc2nc2cccc([N+](=O)[O-])c12`, for which the TGI in the assay on HCC-2998 colon is 0.0315 µM and 0.0156 µM; in the assay with HL-60(TB) leukemia it was 0.175 µM; in the assay on M14 melanoma it was 0.0188 µM and 0.0245 µM; in the assay on NCI-H23 lung it was 0.0188 µM; in the assay with NCI-H460 lung, 0.0186 µM; in the assay on OVCAR-3 ovarian it was 0.0241 µM and 0.0621 µM. Moreover, the TGI in the assay with SF-539 CNS was 0.0472 µM and 0.251 µM; with SK-MEL-2 melanoma, 0.0185 µM and 0.023 µM; in the assay on SK-MEL-28 melanoma it was 0.0566 µM and 0.152 µM; in the assay on SN12C renal, 0.0413 µM and 0.207 µM; in the assay on SNB-75 CNS, 0.0347 µM. The GI50 is 0.0104 µM in the assay on HL-60(TB) leukemia; 0.0244 µM in the assay on OVCAR-3 ovarian; 0.107 µM in the assay on SF-539 CNS; 0.0102 µM in the assay with SK-MEL-2 melanoma; 0.0221 µM with SN12C renal.
On to `COc1c(C)c(C/C=C(\C)CC/C=C(\C)CC/C=C(\C)CCC=C(C)C)c(OC)c(OC)c1OC`, for which the TGI in the assay on HCC-2998 colon, in the assay with M14 melanoma, in the assay on NCI-H23 lung, with NCI-H460 lung, in the assay on OVCAR-3 ovarian and in the assay on SF-539 CNS was greater than 100 µM each time. In addition, the TGI with SK-MEL-2 melanoma, with SN12C renal and in the assay with SNB-75 CNS was greater than 100 µM in each case.
With `Cc1ccc(Nc2c3c(c(C#N)c4nc5ccccc5n24)CCCC3)cc1`, the TGI in the assay on HCC-2998 colon was 94.9 µM; with HL-60(TB) leukemia, 25.5 µM; with M14 melanoma, 74.4 µM; in the assay with NCI-H23 lung it was greater than 100 µM; in the assay with NCI-H460 lung, greater than 100 µM; with OVCAR-3 ovarian, 34.6 µM. Also, the TGI came to 43.4 µM in the assay on SF-539 CNS, 31.7 µM in the assay on SK-MEL-2 melanoma, 55.6 µM in the assay on SK-MEL-28 melanoma and 31.7 µM with SN12C renal.
On to `COc1ccc(CN(CCN(C)C)c2ccccn2)cc1` (tested in a mixture with another compound), for which the TGI in the assay with M14 melanoma, with NCI-H23 lung, with OVCAR-3 ovarian, in the assay with SF-539 CNS, in the assay on SK-MEL-2 melanoma and in the assay on SK-MEL-28 melanoma was greater than 100 µM in each case. Further, the TGI in the assay on SN12C renal and in the assay with SNB-75 CNS was greater than 100 µM in each case.
Turning to `O=[N+]([O-])c1cc(Br)cc2cc(Cl)cnc12`, the TGI with HCC-2998 colon, with HL-60(TB) leukemia, in the assay with M14 melanoma, in the assay with NCI-H23 lung, with NCI-H460 lung and with OVCAR-3 ovarian was greater than 100 µM each time. For the same compound, the TGI was greater than 100 µM with RPMI-8226 leukemia; greater than 100 µM in the assay with SF-539 CNS; greater than 100 µM in the assay on SK-MEL-28 melanoma; greater than 100 µM in the assay with SN12C renal; 92 µM in the assay with SNB-75 CNS.
With `CC(=O)O[C@@H]1[C@H](OC2CCCCC2(c2ccccc2)c2ccccc2)O[N+]([O-])=CC12CCCCC2` (some centres not stated), the TGI in the assay with HCC-2998 colon turned out to be 32.6 µM; in the assay with HL-60(TB) leukemia, 5.65 µM; with M14 melanoma, 33.8 µM; with NCI-H23 lung it was 22.2 µM; in the assay on NCI-H460 lung, 32.2 µM; in the assay on OVCAR-3 ovarian it was 28.1 µM. Moreover, the TGI in the assay with RPMI-8226 leukemia is greater than 100 µM; with SF-539 CNS it was 37.8 µM; in the assay with SK-MEL-28 melanoma, 27 µM; with SN12C renal it was 35.4 µM; in the assay on SNB-75 CNS it was 29.4 µM.
For the compound `COc1ccc(-c2nc(-c3ccc(OC)cc3)n(-c3ccccc3)n2)cc1`, the TGI in the assay with HL-60(TB) leukemia, in the assay on M14 melanoma, in the assay with NCI-H23 lung, in the assay with NCI-H460 lung, in the assay with OVCAR-3 ovarian and with SF-539 CNS was greater than 100 µM each time. Further, the TGI in the assay with SK-MEL-2 melanoma, with SK-MEL-28 melanoma, in the assay on SN12C renal and with SNB-75 CNS was greater than 100 µM each time.
As to `O=C1c2ccccc2N=C(c2cc3c(cc2Cl)Sc2nccn2S3(=O)=O)OS(=O)(=O)N1c1ccccc1`, the TGI is 36 µM with HCC-2998 colon; 60.7 µM with HL-60(TB) leukemia; 47.5 µM in the assay on M14 melanoma; 66.2 µM in the assay on NCI-H23 lung; greater than 100 µM with NCI-H460 lung; greater than 100 µM in the assay on OVCAR-3 ovarian. The TGI was 46.4 µM in the assay with RPMI-8226 leukemia, greater than 100 µM with SF-539 CNS, greater than 100 µM in the assay with SN12C renal and 46.1 µM in the assay with SNB-75 CNS.
